The values below come from article PMC6677754, “In silico design and optimization of selective membranolytic anticancer peptides” (Scientific Reports, 2019).

Peptide text beside a SMILES is read from it.

In series [1] the test system is A549 lung adenocarcinoma cell line. Description: Cell viability assay (MTT). It is filed as cell-based, human. Particulars: Table S2; MTT, 24 h; mean ± sd; N = 2 independent measurements with six technical replicates each (Figs S6-S8); read-out: A549 EC50 /µM. In outline: (§1)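 Viability by MTT: 10^4 cells/well exposed 24 h to 2-fold peptide dilutions from 100 μM in DMEM, then 1 h with 0.5 mg mL−1 MTT; absorbance at 540 nm relative to peptide-free medium as 100% survival. EC50 from a 3-parameter log-logistic fit.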

Series [2] concerns MCF7 breast adenocarcinoma cell line. Nature of the series: Cell viability assay (MTT). Type of series: cell-based, human. The following applies: Table S2, 24 h, mean ± sd, N = 2 independent measurements with six technical replicates each (Figs S6-S8). In outline:
as §1

In series [3] the test system is noncancer HDMEC primary cells (human dermal microvascular endothelial cells). Nature of the series: Cell viability assay (MTT). Particulars: Table S2; noncancer primary cells; MTT, 24 h; mean ± sd; N = 2 independent measurements with six technical replicates each (Figs S6-S8). It is filed as cell-based. As to the method: 10% fetal bovine serum and 1% penicillin-streptomycin (Thermo Fisher Scientific, Waltham, MA, USA). The cultures were kept at 37°C in a 5% CO2 atmosphere incubator (Thermo Fisher Scientific, Waltham, MA, USA) and split every two to three days to new culture flasks. Cells no older than 20 passages were used for experiments.
For splitting, the cell culture media was aspirated, the cells were washed with 0.01 M phosphate buffered saline (PBS, Gibco, Thermo Fisher Scientific, Waltham, MA, USA) and trypsin-EDTA (trypsin - ethylene diamine tetraacetic acid, Fisher scientific, UK) was added to the cell layer to detach them from the flask surface. After incubation for 2 min at 37°C, cells were resuspended with an equal volume of DMEM media and centrifuged at 310 g for 5 min at 4°C. After removal of the supernatant the cells were resuspended in DMEM cell media and split into new cell culture flasks at a 1/3 to 1/5 ratio.
Determination of the anticancer peptides half effective concentration (EC50) was performed by a 3-(4,5-dimethylthiazol-2-yl)-2,5-diphenyltetrazolium bromide (MTT) assay, as described elsewhere21. Briefly, […] were seeded in each well of a 96-well plate and left to adhere and […]
sulfoxide (DMSO, Fisher Scientific, UK) at an intermediate concentration of 1 mM. The peptides were then diluted in a 2-fold dilution series starting at 100 μM with DMEM culture media. Cells were incubated with the peptide solutions for 24 h. After this time, the cell media was removed and the cells were incubated for 1 h with a 0.5 mg mL−1 MTT solution to allow enough time for formazan crystal formation (Sigma Aldrich, Steinheim, Germany). The supernatant was removed and 100 μL of DMSO were added into each well to resuspend the formazan crystals.
After manually shaking the plates to completely dissolve the crystals, the absorbance was measured at 540 nm in a Tecan Infinity M1000 spectrophotometer. The cell viability was determined based on the quantification of the color intensity in each culture well, considering the absorbance obtained by the control media without peptides as a 100% survival. The resultant sigmoidal curves were analyzed with the drc22 R package using a log-logistic model

Another series relates to human erythrocytes. Description: Hemolysis assay. Type of series: cell-based. The following applies: 1 h. As to the method: Human erythrocytes were freshly ordered at the Blutspende Zürich. Erythrocytes were washed 3 times with a […] phosphate buffered saline (PBS, Gibco, Thermo Fisher Scientific, Waltham, MA, USA) solution centrifuging at 800 g for 10 min or until the supernatant appeared clear to remove the blood plasma. A 5% v/v erythrocytes : PBS solution was prepared for direct use. For HC50 determination, peptides were dissolved in PBS at an intermediate concentration of 1 mM. A dilution series of the peptide from 200 to 6.25 μM was plated in a round-bottomed 96-well plate in triplicates, with a volume of 50 μL per well. PBS buffer and a solution of 0.1% Triton-X-100 (Fisher Chemical, Loughborough, UK) in PBS were employed as negative and positive controls, respectively. 50 μL of the 5% erythrocyte solution were added in each well and the plates were incubated at 37°C for 1 h. After this time, 100 μL PBS were added to each well and plates were centrifuged at 800 g for 10 min. 100 μL of the supernatant were transferred to a flat-bottomed 96-well plate and the absorbance was measured at 540 nm in a Tecan Infinity M1000 spectrophotometer plate reader. The hemolysis percentage was calculated, considering the absorbance values of the Triton and PBS wells as 100% and 0% hemolysis, respectively.
The resultant sigmoidal curves were analyzed with the drc22 R package using a log-logistic model with 3 fixed parameters to obtain the HC50 values. […]
NCI-60 screening procedure […]
Each peptide was tested in a 5-concentration assay, starting at 10^-4 M and diluting 10-fold to the lowest 10^-8 M concentration. The peptides were incubated for 48 h and the cell concentration was assayed by using the sulforhodamine B assay25 and optical density measurements. The growth inhibition (GI50) value24, measures the growth inhibitory power of the drug agent. The GI50 value is the concentration of the test drug for which the condition in Eq. S1 is met, where T is the optical density of the test well after a 48-h exposure to the peptide, T0 the optical density before applying the peptide drug and C the control optical density of a well where no peptide was applied.

Turning to `CC[C@H](C)[C@H](NC(=O)[C@H](CCCCN)NC(=O)[C@H](CCCCN)NC(=O)[C@H](CC(C)C)NC(=O)[C@H](CC(C)C)NC(=O)[C@@H](N)CCC(N)=O)C(=O)N[C@@H](CCCNC(=N)N)C(=O)N[C@H](C(=O)N[C@@H](Cc1c[nH]c2ccccc12)C(=O)N[C@@H](Cc1ccc(O)cc1)C(=O)N[C@@H](CCCNC(=N)N)C(=O)N[C@@H](CCCCN)C(=O)N[C@@H](C)C(=O)N[C@@H](Cc1c[nH]c2ccccc12)C(=O)N[C@@H](Cc1c[nH]cn1)C(=O)N[C@H](C(=O)N[C@@H](Cc1ccc(O)cc1)C(=O)NCC(=O)N[C@@H](CCCCN)C(=O)N[C@H](C(N)=O)C(C)C)C(C)C)[C@@H](C)O` [Off2.2.9] (H-QLLKKIRTWYRKAWHVYGKV-NH2), the figures for the EC50 in series [1], in series [2] and in series [3] were 28 ± 3 µM, 13 ± 1 µM and 21 ± 2 µM, respectively. Also, the “Eryhtr. HC50 /µM” value with human erythrocytes (red cells of human) is greater than 200 µM.
In the same order, the values of `CC[C@H](C)[C@H](NC(=O)[C@@H](N)CCC(N)=O)C(=O)N[C@@H](Cc1ccc(O)cc1)C(=O)N[C@@H](CCCCN)C(=O)N[C@@H](CCCCN)C(=O)N[C@@H](Cc1ccc(O)cc1)C(=O)N[C@@H](CCCNC(=N)N)C(=O)N[C@H](C(=O)N[C@@H](Cc1c[nH]c2ccccc12)C(=O)N[C@@H](Cc1ccc(O)cc1)C(=O)N[C@@H](CCCNC(=N)N)C(=O)N[C@@H](CCCCN)C(=O)N[C@@H](C)C(=O)N[C@@H](Cc1c[nH]c2ccccc12)C(=O)N[C@@H](CCCCN)C(=O)N[C@H](C(=O)N[C@@H](CC(C)C)C(=O)NCC(=O)N[C@@H](CCCCN)C(=O)N[C@H](C(N)=O)C(C)C)C(C)C)[C@@H](C)O` [Off2.2.10] (H-QIYKKYRTWYRKAWKVLGKV-NH2) are 36 ± 7 µM, 16.9 ± 0.8 µM, 71 ± 12 µM and greater than 200 µM.
As to `CC[C@H](C)[C@H](NC(=O)[C@H](CCCCN)NC(=O)[C@H](CCCCN)NC(=O)[C@@H](NC(=O)[C@@H](NC(=O)[C@@H](N)CCC(N)=O)[C@@H](C)CC)[C@@H](C)CC)C(=O)N[C@@H](CCCNC(=N)N)C(=O)N[C@H](C(=O)N[C@@H](Cc1c[nH]c2ccccc12)C(=O)N[C@@H](Cc1ccc(O)cc1)C(=O)N[C@@H](CCCNC(=N)N)C(=O)N[C@@H](CCCCN)C(=O)N[C@@H](C)C(=O)N[C@@H](Cc1c[nH]c2ccccc12)C(=O)N[C@@H](Cc1c[nH]cn1)C(=O)N[C@H](C(=O)N[C@@H](CC(C)C)C(=O)NCC(=O)N[C@@H](CCCCN)C(=O)N[C@H](C(N)=O)C(C)C)C(C)C)[C@@H](C)O` [Off2.2] (H-QIIKKIRTWYRKAWHVLGKV-NH2), the EC50 in series [1] amounted to 20 ± 1 µM; in series [2] it was 11.6 ± 0.8 µM; in series [3], 42 ± 7 µM. Further, the “Eryhtr. HC50 /µM” value in the series on human erythrocytes (Table S2, 5% v/v erythrocytes in PBS added 1:1, peptide 200 to 6.25 µM, 37°C, absorbance 540 nm, 0.1% Triton-X-100 = 100%, mean ± sd, N = 2 independent, three technical replicates) is on record as greater than 200 µM.
Turning to `CC[C@H](C)[C@H](NC(=O)[C@H](CCCCN)NC(=O)CNC(=O)[C@@H](NC(=O)[C@@H](NC(=O)[C@H](Cc1c[nH]cn1)NC(=O)[C@H](Cc1c[nH]c2ccccc12)NC(=O)[C@@H]1CCCN1C(=O)[C@H](CCCCN)NC(=O)[C@H](CCCCN)NC(=O)[C@H](CC(C)C)NC(=O)[C@H](Cc1ccccc1)NC(=O)[C@H](Cc1c[nH]cn1)NC(=O)[C@H](CCCNC(=N)N)NC(=O)[C@H](Cc1ccccc1)NC(=O)[C@H](CCCCN)NC(=O)[C@H](CCCCN)NC(=O)[C@H](Cc1ccc(O)cc1)NC(=O)[C@H](CC(C)C)NC(=O)[C@@H](N)[C@@H](C)O)C(C)C)C(C)C)C(N)=O` [Off2.3] (H-TLYKKFRHFLKKPWHVVGKI-NH2), the EC50 is greater than 100 µM in series [1], 65 ± 3 µM in series [2] and 167 ± 13 µM in series [3]. In the series with human erythrocytes (red cells of human), the “Eryhtr. HC50 /µM” value was greater than 200 µM.
